Results as given in publication PMC4627231, “Targeting the sugar metabolism of tumors with a first-in-class 6-phosphofructo-2-kinase (PFKFB4) inhibitor” (Oncotarget, 2015).

How the values were obtained:
[1] = system: intracellular F2,6BP in H460 cells; test: F2,6BP measurement in H460 cells; format: cell-based, human; details: for [F2,6BP]: 24 hours (DMSO 6.1 ±0.2)
Protocol: Cells or tissues were prepared as previously described and F2,6BP content measured using a coupled enzyme reaction following the method of Van Schaftingen et al and normalized to total cellular protein measured by the bicinchoninic acid assay (Thermo Scientific). All data are expressed as the mean ± SD of three experiments. Statistical significance was assessed by the two-sample t test (independent variable).

[2] = system: panel of 97 protein kinases; test: KINOMEscan active-site dependent competition binding assay; details: 10 μM, data not shown
Protocol: The fructose-6-phosphate kinase activity of human recombinant PFKFB4 and human recombinant PFKFB3 in the presence of DMSO ± indicated concentrations of 5MPN was assayed as previously described. The activity of 5MPN against 97 kinases was examined using a commercially available active-site dependent competition binding assay core service (KINOMEscanEDGE) that quantifies the capacity of test agents to compete with an immobilized, active-site directed ligand using a DNA-tagged kinase and immobilized ligand and compound.

[3] = system: C57BL/6 mice; test: Two-week oral toxicity study; format: in vivo; details: 120 mg/kg PO, two weeks
Protocol: Given the potential usefulness of oral administration in terms of cost and convenience, we elected to pursue this route in subsequent toxicity and efficacy pre-clinical studies. Initially, we dosed C57BL/6 mice with 120 mg/kg PO (dose chosen based on a dose escalation trial) for two weeks and analyzed the effect on complete blood counts, electrolytes, hepatic and renal function, body mass and the gross and histological appearance of the brain, heart, lungs, liver, kidneys and spleen. […] We confirmed that 5MPN caused a G1 arrest in LLC cells in vitro similar to H460 cells (Figure 4G) and then examined the number of Ki67-positive cells since Ki67 expression correlates with later S and G2 phases of the cell cycle.

[4] = system: H460 cells; test: Viable cell count (trypan blue exclusion); format: cell-based, human
Protocol: (§1) Viability was determined using trypan blue exclusion as previously described. Cells were incubated in 20% trypan blue (Sigma) for 5 minutes. Cells excluding trypan blue were counted using a standard hemocytometer (Hausser Scientific) to determine total numbers of viable cells. Data are expressed as mean ± SD of three experiments.

[5] = system: HCT116 cells; test: Viable cell count (trypan blue exclusion); format: cell-based, human; details: HCT116, 48 hours
Protocol: as §1

[6] = system: LNCaP cells; test: Viable cell count (trypan blue exclusion); format: cell-based, human; details: 48 hours
Protocol: as §1

[7] = system: hT/LT/Ras cells; test: Viable cell count (trypan blue exclusion); format: cell-based, human; details: live cells counted at 48 hours
Protocol: as §1

[8] = system: H1299 cells; test: Viable cell count (trypan blue exclusion); format: cell-based, human; details: H1299, 48 hours
Protocol: as §1

[9] = system: H441 cells; test: Viable cell count (trypan blue exclusion); format: cell-based, human; details: H441, 48 hours
Protocol: as §1

[10] = system: H522 cells; test: Viable cell count (trypan blue exclusion); format: cell-based, human; details: H522, 48 hours
Protocol: as §1

[11] = system: A549 cells; test: Viable cell count (trypan blue exclusion); format: cell-based, human; details: A549, 48 hours
Protocol: as §1

[12] = system: MDA-MB-231 cells; test: Viable cell count (trypan blue exclusion); format: cell-based, human; details: MDA-MB-231, 48 hours
Protocol: as §1

[13] = Pharmacokinetic profile after IV and oral administration; format: in vivo; details: mouse, female C57BL/6 mice, plasma
Protocol: The pharmacokinetic profile was determined in female C57BL/6 mice (Charles River Laboratories) following IV and oral administration of 5MPN. Using only female mice lowered the animal numbers required for meaningful results without issues of potential gender differences in exposure. Eight time points (n=3 per time point) were used to determine indicated PK parameters calculated using WinNonLin v5.0. Plasma samples were extracted using acetonitrile and analyzed by LC/MS-MS using a PhenomexSynergi Polar-RP 4micron 50×2.0 mm column eluted with a biphasic mobile phase (0.5% formic acid in acetonitrile and water).

[14] = system: normal human bronchial epithelial (NHBE) cells; test: Viable cell count (trypan blue exclusion); format: cell-based; details: live cells counted at 48 hours
Protocol: as §1

[15] = system: ATP in H460 cells; test: Intracellular ATP measurement; format: cell-based, human; details: 10 μM, 6-72 hours
Protocol: Cells were lysed and intracellular ATP determined as described previously. All data are expressed as the mean ± SD of three experiments. Statistical significance was assessed by the two-sample t test (independent variable).

[16] = system: H460 cells; test: Apoptosis by flow cytometry (annexin V / propidium iodide); format: cell-based, human; details: 10μM 5MPN
Protocol: To measure apoptosis, cells were stained with annexin V and propidium iodide and examined as previously described. For cell cycle experiments, cells were detached, washed with cold PBS and fixed in 70% ethanol at 4°C for 30 minutes. The cells then were pelleted by centrifugation, resuspended in PBS containing PI and RNase A, incubated at 37°C in the dark for 30 minutes and analyzed by flow cytometry (BD FACSCalibur). Data were analyzed using FlowJo software (TREE STAR Inc.). Results were calculated as the mean ± SD of three experiments and data shown are representative of three independent experiments.

[17] = system: Ki67-positive cells in LLC xenografts; test: Ki67 immunohistochemistry of LLC tumors; format: in vivo, C57BL/6 mice; details: oral administration
Protocol: Five μm mounted sections of formalin-fixed, paraffin-embedded LLC tumor tissues were processed as previously described and then incubated with anti-Ki-67 primary antibody (Abcam) overnight, followed by HRP-linked goat anti-rabbit secondary antibody (1:300, Pierce). Sections were developed with 3,3′-diaminobenzidine tetrahydrochloride and counterstained as previously described. Slides were scanned using a ScanScope XT Digital Slide Scanner (Aperio), data analyzed with the positive pixel count algorithm (ImageScope, Aperio) and a minimum of 5 fields (20x magnification) were quantified for each tumor section. The data are depicted as % positive pixels/total pixels ± SD.

COc1cccc2c(NCCCCCO[N+](=O)[O-])ccnc12 [Compound 5MPN, 5-(n-(8-methoxy-4-quinolyl)amino)pentyl nitrate]
[F2,6BP] ([1]; 5μM 5MPN): 2.3 ±0.05 pmol/mg protein
[F2,6BP] ([1]; 10μM 5MPN): 1.52 ±0.2 pmol/mg protein
[F2,6BP] ([1]; 20 μM 5MPN): 0.75±0.09 pmol/mg protein
[F2,6BP] ([1]; 30 μM 5MPN): 0.43 ±0.1 pmol/mg protein
effect of PFKFB4 over-expression on the reduction in F2,6BP caused by 5MPN ([1]; Vec vs FB4, 10 μM 5MPN, 24 hours): reversed
inhibition of a panel of 97 protein kinases [2]: not inhibited
signs of toxicity (blood counts, electrolytes, hepatic and renal function, body mass, organ histology, behavior) [3]: no signs of toxicity
effect on proliferation ([4]; H460, 48 hours): dose-dependent reduction in growth
effect of PFKFB4 over-expression on anti-proliferative effect ([4]; H460 cells transfected with PFKFB4 vs empty vector, 10μM 5MPN, 24 hours): protected
effect on proliferation [5]: dose-dependent reduction in growth
effect on proliferation [6]: dose-dependent reduction in growth
effect on cell growth [7]: suppressed similar to other transformed cells
effect on proliferation [8]: dose-dependent reduction in growth
effect on proliferation [9]: dose-dependent reduction in growth
effect on proliferation [10]: dose-dependent reduction in growth
effect on proliferation [11]: dose-dependent reduction in growth
effect on proliferation [12]: dose-dependent reduction in growth
AUC(0-inf) ([13]; iv, 2 mg/kg, I.V.): 114 ng·h/mL
AUC(0-t) ([13]; iv, 2 mg/kg, I.V.): 111 ng·h/mL
C0 ([13]; iv, 2 mg/kg, I.V.): 249 ng/mL
half-life ([13]; iv, 2 mg/kg, I.V.): 23.2 min
Vd ([13]; iv, 2 mg/kg, I.V., read-out: Vss): 8.48 L/kg
MRT ([13]; iv, I.V.): 0.485 h
clearance ([13]; iv, I.V.): 291 mL/min/kg
MRT ([13]; po, 10 mg/kg, P.O): 2.31 h
AUC(0-inf) ([13]; po, P.O): 234 ng·h/mL
AUC(0-t) ([13]; po, P.O): 225 ng·h/mL
Cmax ([13]; po, P.O): 98.7 ng/mL
bioavailability ([13]; po, P.O): 40.9%
half-life ([13]; po, P.O): 100 min
effect on cell growth [14]: virtually unaffected
effect on ATP [15]: reduced
increase in apoptotic cells [16]: only a minimal increase
Ki67-positive cells [17]: reduction
